In ChEMBL document CHEMBL4725228, “An aza-nucleoside, fragment-like inhibitor of the DNA repair enzyme alkyladenine glycosylase (AAG)” (Bioorg Med Chem, 2020) one finds inhibition and IC50 data, which are given here for five compounds.

Structures are written as SMILES. Calls of active or inactive are those of the source. The calls are words filed in the database; no cut-off is given here.

The target in the assay is DNA-3-methyladenine glycosylase (Homo sapiens, UniProt P29372). Put plainly: Inhibition of human AAG using HXO2/Loop01 oligonucleotide as substrate incubated for 2 hrs by colorimetric based microplate assay.
Chain of DNA-3-methyladenine glycosylase (P29372 whole entry): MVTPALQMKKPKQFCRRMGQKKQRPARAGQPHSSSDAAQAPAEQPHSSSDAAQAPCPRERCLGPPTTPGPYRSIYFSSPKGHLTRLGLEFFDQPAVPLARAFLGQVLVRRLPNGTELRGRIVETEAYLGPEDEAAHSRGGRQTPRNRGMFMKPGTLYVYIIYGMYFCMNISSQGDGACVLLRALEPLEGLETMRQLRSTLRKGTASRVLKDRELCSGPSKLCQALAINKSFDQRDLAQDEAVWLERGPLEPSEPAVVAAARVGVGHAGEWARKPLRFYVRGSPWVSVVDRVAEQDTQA

As for `OC[C@H]1CN(Cc2ccncc2)C[C@@H]1O`, the inhibition entry was “Active”.

Take `OC[C@H]1CN(Cc2ccccn2)C[C@@H]1O`: the inhibition result is “Active”.

For `OC[C@H]1CN(Cc2c[nH]cn2)C[C@@H]1O`, 157 µM corresponded to half-maximal inhibition (IC50).

Take `OC[C@H]1CN(Cc2cccnc2)C[C@@H]1O`: the inhibition entry is “Active”.

On to `OC[C@H]1CN(Cc2ncc[nH]2)C[C@@H]1O`, for which the inhibition result was “Active”.
